The values that follow come from PubChem BioAssay (NCI).

SMILES strings stand for the structures.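 Interpolation was linear, between the two tested concentrations surrounding the appropriate level; five concentrations were tested over 48 hours in 96-well plates. At the TGI there is no net growth.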

Test systems include HCT-15 colon; MDA-MB-435; OVCAR-5 ovarian; SF-295 CNS; SK-MEL-2 melanoma; SK-MEL-5 melanoma; SR leukemia; T-47D breast; U251 CNS; OVCAR-4 ovarian.
Common to all, as to test: NCI-60 cell line screen, 48 h

`C=C(C)C1CCC2(C)C1CCC1(C)C2CCC2C3(C)C4OC(OC4=O)C(C)(C)C3CCC21C` (stereo not given): the TGI in the experiment on HCT-15 colon, in the experiment with MDA-MB-435, with OVCAR-5 ovarian, in the experiment with SF-295 CNS, in the experiment on SK-MEL-2 melanoma and in the experiment with SK-MEL-5 melanoma was greater than 100 µM in each case. Moreover, the TGI in the experiment with SR leukemia, in the experiment with T-47D breast and in the experiment on U251 CNS was greater than 100 µM throughout.

On to `O=C(CN1CCCC1)Nc1ccc2c(c1)C1Oc3ccccc3CC1CO2` (stereo not given), for which the TGI in the experiment on HCT-15 colon was found to be 47.2 µM; in the experiment with MDA-MB-435 it was 55.4 µM; in the experiment on OVCAR-5 ovarian, 93.4 µM; in the experiment with SF-295 CNS it was 39.7 µM; in the experiment with SK-MEL-2 melanoma it was 50 µM; with SK-MEL-5 melanoma, 28.2 µM. Moreover, the TGI in the experiment on SR leukemia was 89.6 µM; with T-47D breast it was greater than 100 µM; in the experiment on U251 CNS, 56.5 µM.

On to `O=C(O)C1C2OC(C(Br)C2Br)C1C(=O)O` (stereo not given), for which the TGI with HCT-15 colon, in the experiment on MDA-MB-435, with OVCAR-4 ovarian, with OVCAR-5 ovarian, with SF-295 CNS and with SK-MEL-2 melanoma was greater than 100 µM in each case. In addition, the TGI with SK-MEL-5 melanoma, with T-47D breast and in the experiment on U251 CNS was greater than 100 µM in each case.

For `C[C@]12CC[C@H]3[C@@H](CCC4=C/C(=N/OCCN5CCCCC5)CC[C@@]43C)[C@@H]1CC[C@@H]2O`, the TGI in the experiment with HCT-15 colon stood at 21.2 µM; in the experiment with MDA-MB-435, 20.2 µM; in the experiment on OVCAR-4 ovarian, 58.9 µM; in the experiment on OVCAR-5 ovarian, 40.7 µM; with SF-295 CNS it was 29.3 µM; with SK-MEL-2 melanoma, 29.8 µM. The TGI in the experiment with SK-MEL-5 melanoma is 26.4 µM; in the experiment on T-47D breast it was greater than 100 µM; in the experiment with U251 CNS, 27.1 µM.

As for `COc1cc2c(cc1OCCN1CCN(CCOc3cc4c(cc3OC)C(=O)N3CCC[C@H]3C=N4)CC1)N=C[C@@H]1CCCN1C2=O`, the TGI was greater than 100 µM in the experiment on HCT-15 colon; 64.2 µM in the experiment on MDA-MB-435; greater than 100 µM with OVCAR-4 ovarian; 63.7 µM with OVCAR-5 ovarian; 67.3 µM with SF-295 CNS; 58.7 µM in the experiment on SK-MEL-2 melanoma. In addition, the TGI is 48.9 µM with SK-MEL-5 melanoma, greater than 100 µM with T-47D breast and greater than 89.7 µM in the experiment with U251 CNS.

On to `CCCCCCCCCCCCCCCCOC[C@H](COC(c1ccccc1)(c1ccccc1)c1ccccc1)O[P+](=S)OC` (stereo not given in full), for which the TGI in the experiment on HCT-15 colon, in the experiment on MDA-MB-435, in the experiment on OVCAR-5 ovarian, with SF-295 CNS, with SK-MEL-2 melanoma and in the experiment with SK-MEL-5 melanoma was greater than 100 µM in each case. The TGI with SR leukemia, in the experiment with T-47D breast and with U251 CNS was greater than 100 µM throughout.

As to `CN(CC(=O)O)c1ncc2c(n1)-c1ccccc1CC2`, the TGI with HCT-15 colon, with MDA-MB-435, with OVCAR-4 ovarian, in the experiment with OVCAR-5 ovarian, with SF-295 CNS and in the experiment with SK-MEL-2 melanoma was greater than 100 µM in each case. The TGI in the experiment on SK-MEL-5 melanoma, in the experiment on SR leukemia and with U251 CNS was greater than 100 µM throughout.

As to `COc1cc(/C=C2\C(=O)N(c3ccc(Cl)cc3)C(c3ccccc3)S2(=O)=O)cc(OC)c1OC` (stereo not given), the TGI is greater than 100 µM with HCT-15 colon; 23.1 µM in the experiment with MDA-MB-435; greater than 100 µM with OVCAR-4 ovarian; greater than 100 µM in the experiment with OVCAR-5 ovarian; greater than 100 µM in the experiment on SF-295 CNS; greater than 100 µM in the experiment on SK-MEL-2 melanoma. Also, the TGI was greater than 22 µM with SK-MEL-5 melanoma, greater than 100 µM with T-47D breast and greater than 100 µM with U251 CNS.

For the compound `CN(C)CCCNC(=O)N/N=C/c1ccccn1`, the TGI with HCT-15 colon, in the experiment on OVCAR-4 ovarian, with OVCAR-5 ovarian, in the experiment on SF-295 CNS, with SK-MEL-5 melanoma and in the experiment on SR leukemia was greater than 10 µM throughout. The TGI with T-47D breast was greater than 10 µM.

Consider `CCOC(=O)CSc1nc(-c2ccc(Cl)cc2)c(C#N)c(=O)[nH]1`, for which the TGI in the experiment on HCT-15 colon, with MDA-MB-435, with OVCAR-4 ovarian, in the experiment with OVCAR-5 ovarian, in the experiment with SF-295 CNS and in the experiment with SK-MEL-2 melanoma was greater than 100 µM each time. Besides, the TGI in the experiment on SK-MEL-5 melanoma, with T-47D breast and with U251 CNS was greater than 100 µM each time.

In the case of `CC1OC23CCCCC2C(C#N)(C#N)C1(C#N)C(=N)O3` (stereo not given), the TGI with HCT-15 colon is 37.6 µM; in the experiment on MDA-MB-435 it was 50.9 µM; in the experiment on OVCAR-5 ovarian it was 52.6 µM; with SF-295 CNS, greater than 100 µM; in the experiment with SK-MEL-2 melanoma, 43.5 µM; in the experiment on SK-MEL-5 melanoma, 32.3 µM. The results for the TGI in the experiment with T-47D breast and in the experiment on U251 CNS were 53.6 µM and 71.5 µM, respectively.

For `CCCCCCCCCCCCCCCC[N+](C)(C)CCl`, the TGI was 20.9 µM with HCT-15 colon; greater than 39.2 µM in the experiment on MDA-MB-435; 8.44 µM in the experiment with OVCAR-4 ovarian; 21.6 µM in the experiment with OVCAR-5 ovarian; 6.06 µM in the experiment with SF-295 CNS; 49.8 µM with SK-MEL-2 melanoma. The figures for the TGI in the experiment with SK-MEL-5 melanoma, in the experiment on T-47D breast and in the experiment on U251 CNS were 2.94 µM, 23.6 µM and 3.04 µM, respectively.

Regarding `O=c1[nH]c2ccccc2c(=O)n1/N=C\c1ccccc1O`, the TGI in the experiment with HCT-15 colon, with MDA-MB-435, in the experiment with OVCAR-5 ovarian, in the experiment on SF-295 CNS, in the experiment with SK-MEL-2 melanoma and in the experiment with SK-MEL-5 melanoma was greater than 100 µM each time. In addition, the TGI in the experiment on SR leukemia, with T-47D breast and with U251 CNS was greater than 100 µM throughout.

With `Cc1cc(C)c(C2=NO[C@@H]3[C@H]2C(=O)C=C2N(Cc4ccccc4)CCO[C@@]23O)c(C)c1`, the TGI in the experiment with HCT-15 colon, in the experiment on OVCAR-4 ovarian, with OVCAR-5 ovarian, with SF-295 CNS, in the experiment on SK-MEL-2 melanoma and in the experiment with SK-MEL-5 melanoma was greater than 100 µM throughout. The same compound displayed a TGI in the experiment on U251 CNS greater than 100 µM.

On to `CCOC(=O)NC(Nc1ccc(C(=O)O)cc1)(C(F)(F)F)C(F)(F)F`, for which the TGI in the experiment on HCT-15 colon, in the experiment on MDA-MB-435, in the experiment with OVCAR-5 ovarian, with SF-295 CNS, in the experiment on SK-MEL-2 melanoma and in the experiment on SK-MEL-5 melanoma was greater than 100 µM in each case. Besides, the TGI in the experiment with SR leukemia, in the experiment on T-47D breast and with U251 CNS was greater than 100 µM in each case.
